How the values were obtained:
Format in all cases: cell-based, mouse
[1] = Cytotoxicity test (CCK-8) in RAW264.7 cell; details: mouse, RAW264.7 macrophage cells
Experimental: (§1) RAW264.7 cell (TIB-71, ATCC), a mouse macrophage cell, was suspended in 5% FBS (Fetal Bovine Serum)-supplemented DMEM (Dulbecco's Modified Eagle Medium, Gibco) medium in a concentration of 1×10^5 cells/ml, and 100 μL of the suspension was inoculated into 96 well plates to adhere cell to the plate for 4 hours. Various concentrations of test sample (KS 513 compound) were treated therewith and cultured for 24 hours. 10 μL of CCK-8 solution was mixed therewith according to the manufacture's manual kit (Dojindo Co. Ltd), reacted from 30 mins to 4 hours, and the absorbance of the solution was determined at […]. The cell viability was calculated according to following Math formulae 1 based on negative control group treated with 0.2% DMSO and the result was shown in Table 2.
(§2) Cell viability (%)=OD 570 nm (test group)/OD 570 nm (negative control group)×100 Math formulae 1

RAW264.7 cell = assay: Cytotoxicity test (CCK-8) in RAW264.7 cell; details: up to 80 μM
Experimental: as §1, §2

iNOS = assay: mRNA expression of iNOS in RAW264.7 cell line induced by LPS (real-time PCR); details: for iNOS mRNA expression, Fold (value compared with a negative group) / iNOS mRNA expression, Inhibition ratio (IR) compared with LPS treatment group: LPS 1 μg/ml, 12 hours
Experimental: (§3) In order to determine the inhibitory effect on the mRNA expression of pro-inflammatory medicated enzyme such as iNOS or COX-2, and pro-inflammatory medicated cytokines such as IL-1beta, IL-6, TNF-alpha in RAW264.7 cell line induced by LPS, following test using by real-time PCR (real-time polymerase chain reaction, quantitative real time polymerase chain reaction, qPCR) was performed according to the method disclosed in the literature (Livak, K. J., Schimittgen T. D., 2001, Analysis of relative gene expression data using real-time quantitiative PCR and the 2 (-Delta Delta C(T) method, Methods 25, p 402-408):
(§4) RAW264.7 cell was inoculated into 6-well-plates in the concentration of 1×10^6 cell/well to incubate for 12 hours. Various concentration of KS-513 compound (2.5, 5, 10 and 20 μM) was pre-treated therewith and 1 μg/mL of LPS (L6529, Sigma) was added thereto to incubate for 12 hours.
(§5) To extract total RNA, RNA was extracted using by Triazol B (invitrogen) and cDNA was synthesized using by Omniscript RT kit (205113, Qiagen, Gmbh, Hilden, Germany) after the quantification. The synthesized cDNA was mixed with its template and the primers shown in Table 3 (SEQ.I.D. 1-14), performed to denaturation at 94° C. for 5 mins using by PCR mix (PCR master Mix, Bioneer, Korea), and reacted as follows: 1 cycle for pre-denaturation; at 95° C. for 30 sec, 60° C. for 45 sec, 72° C. for 45 sec, 30 cycles for denaturation; 10 mins at 72° C., 1cycle for final extension. (FIG. 2)

TNF-alpha = assay: mRNA expression of TNF-alpha in RAW264.7 cell line induced by LPS (real-time PCR); details: for TNF-alpha mRNA expression, Fold (value compared with a negative group) / TNF-alpha mRNA expression, Inhibition ratio (IR) compared with LPS treatment group: LPS 1 μg/ml, 12 hours
Experimental: as §3, §4, §5

IL-1beta = assay: mRNA expression of IL-1beta in RAW264.7 cell line induced by LPS (real-time PCR); details: for IL-1beta mRNA expression, Fold (value compared with a negative group) / IL-1beta mRNA expression, Inhibition ratio (IR) compared with LPS treatment group: LPS 1 μg/ml, 12 hours
Experimental: as §3, §4, §5

COX-2 = COX-2 protein expression in RAW264.7 cell induced by LPS (Western blot); details: LPS 1 μg/ml, FIG. 4A
Experimental: (§6) In order to determine the inhibitory effect on the COX-2 protein expression and the reproduced level of PGE2, following test was performed by the method disclosed in the literature (Chen, C, et al., 1999, Involvement of p 38 mitogen-activated protein kinase in lipopolysaccharide-induced iNOS and COX-2 expression in J774 macrophage, Immunology, 97, pp 124-129)
The expressed level of COX-2 in RAW264.7 cell induced by LPS (1 μg/ml) was determined by using Western blot analysis according to the method disclosed in Experimental Example 3.

PGE2 = PGE2 production in LPS-treated RAW264.7 cell (EIA); details: for PGE2 production (relative % comparing with LPS treatment group) / PGE2 production, Inhibitory ratio (%): LPS 1 μg/mL, 24 hours
Experimental: as §6
RAW264.7 cell was inoculated into 96 well plates in the concentration of 1×10^5 cell/well to incubate for 18 hours. Various concentration of KS-513 compound (2.5, 5, 10 and 20 μM) was pre-treated therewith and 1 μg/mL of LPS (L6529, Sigma) was added thereto to incubate for 24 hours. The PGE2 level in the cell was determined by Enzyme immunoassay (EIA; Amersham Pharmacia) system and the result was shown in FIG. 4A, 4B and Table 6.

IL-6 = IL-6 production in LPS-treated RAW264.7 cell (ELISA); details: for IL-6 production (relative % comparing with LPS treatment group) / IL-6 production, Inhibitory ratio (%): LPS 1 μg/mL, 24 hours
Experimental: RAW264.7 cell was inoculated into 96 well plates in the concentration of 1×10^5 cell/well to incubate for 18 hours. Various concentration of KS-513 compound (2.5, 5, 10 and 20 μM) was pre-treated therewith and 1 μg/mL of LPS (L6529, Sigma) was added thereto to incubate for 24 hours. The level of inflammatory cytokines such as IL-1beta, IL-6, TNF-alpha etc in the cell medium was determined by ELISA kit (IL-1beta:559603, IL-6:555240, TNF-alpha:5558534, BD) and the result was shown in FIG. 5 and Table 7-9.

[2] = various concentration, compared with control group treated with LPS (100%)

Work on CO[C@@H]1C[C@H]2[C@H](OC(=O)c3ccc(O)cc3)[C@@H]3O[C@]3(CO)[C@H]2[C@H](O[C@@H]2O[C@H](CO)[C@@H](O)C(O)[C@H]2O)O1 (stereo partly drawn) [KS-513, (1aS, 1bS,2S,4S,5aR,6S,6aS)-1a-(hydroxymethyl)-4-methoxy-2-(((2S,3R,5S,6R)-3,4,5-trihydroxy-6-(hydroxymethyl)tetrahydro-2H-pyran-2-yl)oxy)octahydrooxireno[2′,3′:4,5]cyclopenta[1,2-c]pyran-6-yl 4-hydroxybenzoate] yielded a viability at 24 h, 2.5 µM ([1]; 2.5 μM, 24 hours, vs negative control 0.2% DMSO, read-out: RAW264.7 cell viability (%, mean ± variation)) of 99.6 ± 3.66%, a viability at 24 h, 5 µM ([1]; 5 μM, 24 hours, vs negative control 0.2% DMSO, read-out: RAW264.7 cell viability (%, mean ± variation)) of 99.3 ± 5.68% and a viability at 24 h, 10 µM ([1]; 10 μM, 24 hours, vs negative control 0.2% DMSO, read-out: RAW264.7 cell viability (%, mean ± variation)) of 98.2 ± 3.28%. The viability at 24 h, 20 µM ([1]; 20 μM, 24 hours, vs negative control 0.2% DMSO, read-out: RAW264.7 cell viability (%, mean ± variation)) was 94.7 ± 3.03%, the viability at 24 h, 40 µM ([1]; 40 μM, 24 hours, vs negative control 0.2% DMSO, read-out: RAW264.7 cell viability (%, mean ± variation)) was 97.2 ± 7% and the viability at 24 h, 80 µM ([1]; 80 μM, 24 hours, vs negative control 0.2% DMSO, read-out: RAW264.7 cell viability (%, mean ± variation)) was 95.1 ± 2.73%. The viability at 24 h ([1]; at less than 80 μM) was over 95%, the “cytotoxicity in RAW264.7 cell” value (RAW264.7 cell) was “did not show cytotoxicity” and the “iNOS mRNA expression, Fold (value compared with a negative group)” value (“iNOS mRNA expression, Fold” for short) (iNOS; 2.5 μM) was 7.25 ± 2.51 Fold. The “iNOS mRNA expression, Inhibition ratio (IR) compared with LPS treatment group” value (“iNOS mRNA expression, Inhibition ratio” for short) (iNOS; 2.5 μM) was 18.41%, the “iNOS mRNA expression, Fold” value (iNOS; 5 μM) was 5.94 ± 2.91 Fold and the “iNOS mRNA expression, Inhibition ratio” value (iNOS; 5 μM) was 33.09%. For the same compound, the “iNOS mRNA expression, Fold” value (iNOS; 10 μM) was 2.48 ± 0.19 Fold, the “iNOS mRNA expression, Inhibition ratio” value (iNOS; 10 μM) was 72.12% and the “iNOS mRNA expression, Fold” value (iNOS; 20 μM) was 1.32 ± 0.47 Fold. The “iNOS mRNA expression, Inhibition ratio” value (iNOS; 20 μM) was 85.19%, the “expressed level of mRNA of iNOS” value (iNOS; [2]) was “significantly decreased in a dose dependent manner” and the “TNF-alpha mRNA expression, Fold (value compared with a negative group)” value (“TNF-alpha mRNA expression, Fold” for short) (TNF-alpha; 2.5 μM) was 9.60 ± 3.33 Fold. The “TNF-alpha mRNA expression, Inhibition ratio (IR) compared with LPS treatment group” value (TNF-alpha; 2.5 μM) was 14.34%, the “TNF-alpha mRNA expression, Fold” value (TNF-alpha; 5 μM) was 5.34 ± 3.27 Fold and the “TNF-alpha mRNA expression, Inhibition ratio (IR) compared with LPS treatment group” value (TNF-alpha; 5 μM) was 52.39%. For the same compound, the “TNF-alpha mRNA expression, Fold” value (TNF-alpha; 10 μM) was 2.72 ± 0.99 Fold, the “TNF-alpha mRNA expression, Inhibition ratio (IR) compared with LPS treatment group” value (TNF-alpha; 10 μM) was 75.69% and the “TNF-alpha mRNA expression, Fold” value (TNF-alpha; 20 μM) was 1.49 ± 0.77 Fold. For the same compound, the “TNF-alpha mRNA expression, Inhibition ratio (IR) compared with LPS treatment group” value (TNF-alpha; 20 μM) was 86.70%, the “expressed level of mRNA of TNF-alpha” value (TNF-alpha; [2]) was “significantly decreased in a dose dependent manner” and the “IL-1beta mRNA expression, Fold (value compared with a negative group)” value (from here on “IL-1beta mRNA expression, Fold”) (IL-1beta; 2.5 μM) was 10.41 ± 1.09 Fold. For the same compound, the “IL-1beta mRNA expression, Inhibition ratio (IR) compared with LPS treatment group” value (IL-1beta; 2.5 μM) was 37.69%, the “IL-1beta mRNA expression, Fold” value (IL-1beta; 5 μM) was 5.72 ± 0.24 Fold and the “IL-1beta mRNA expression, Inhibition ratio (IR) compared with LPS treatment group” value (IL-1beta; 5 μM) was 65.75%. The “IL-1beta mRNA expression, Fold” value (IL-1beta; 10 μM) was 2.56 ± 0.14 Fold, the “IL-1beta mRNA expression, Inhibition ratio (IR) compared with LPS treatment group” value (IL-1beta; 10 μM) was 84.68% and the “IL-1beta mRNA expression, Fold” value (IL-1beta; 20 μM) was 1.70 ± 0.59 Fold. For the same compound, the “IL-1beta mRNA expression, Inhibition ratio (IR) compared with LPS treatment group” value (IL-1beta; 20 μM) was 89.85%, the “expressed level of mRNA of IL-1beta” value (IL-1beta; [2]) was “significantly decreased in a dose dependent manner” and the “expressed level of COX-2 protein” value (COX-2) was “reduced in a dose dependent manner”. The “PGE2 production (relative % comparing with LPS treatment group)” value (PGE2; 2.5 μM) was 92.68 ± 7.29%, the “PGE2 production, Inhibitory ratio (%)” value (PGE2; 2.5 μM) was 7.31% and the “PGE2 production (relative % comparing with LPS treatment group)” value (PGE2; 5 μM) was 72.87 ± 8.78%. For the same compound, the “PGE2 production, Inhibitory ratio (%)” value (PGE2; 5 μM) was 27.13%, the “PGE2 production (relative % comparing with LPS treatment group)” value (PGE2; 10 μM) was 51.65 ± 8.44% and the “PGE2 production, Inhibitory ratio (%)” value (PGE2; 10 μM) was 48.35%. The “PGE2 production (relative % comparing with LPS treatment group)” value (PGE2; 20 μM) was 28.23 ± 4.72%, the “PGE2 production, Inhibitory ratio (%)” value (PGE2; 20 μM) was 71.77% and the “reproduced ratio of PGE2” value (PGE2; based on LPS treatment (100%)) was “reduced in a dose dependent manner”. For the same compound, the “IL-6 production (relative % comparing with LPS treatment group)” value (IL-6; 2.5 μM) was 75.21 ± 2.20%, the “IL-6 production, Inhibitory ratio (%)” value (IL-6; 2.5 μM) was 24.79% and the “IL-6 production (relative % comparing with LPS treatment group)” value (IL-6; 5 μM) was 71.34 ± 5.75%. For the same compound, the “IL-6 production, Inhibitory ratio (%)” value (IL-6; 5 μM) was 28.66%, the “IL-6 production (relative % comparing with LPS treatment group)” value (IL-6; 10 μM) was 51.13 ± 2.31% and the “IL-6 production, Inhibitory ratio (%)” value (IL-6; 10 μM) was 48.87%. For the same compound, the “IL-6 production (relative % comparing with LPS treatment group)” value (IL-6; 20 μM) was 39.25 ± 2.85%, the “IL-6 production, Inhibitory ratio (%)” value (IL-6; 20 μM) was 60.75% and the “level of produced IL-6” value (IL-6; vs LPS treatment group (1 μg/ml), FIG. 5) was “reduced in a dose dependent manner”.

— patent US20180105548A1, “A novel compound (KS-513) isolated from Pseudolysimachion rotundum var. subintegrum, the composition comprising the same preventing or treating allergic disease, inflammatory disease, asthma or chronic obstructive pulmonary disease and the use thereof” (priority 2015, published 2018)
